From patent publication US8129381B2, “Caspase inhibitors and uses thereof” (Vertex Pharmaceuticals Incorporated, priority 2002, dated 2012)

Legend:
rat cortical neurons = assay: Hypoxia-induced apoptosis of rat cortical neurons; assay type: cell-based, Wistar rat; settings: Cortical neurone, oxygen-depleted serum-free medium, Cell Death Detection ELISA (DNA fragmentation)
Method: Cortical neurons are dissociated from Wistar rat embryos (E17) by a modification of the procedure of Rogers et al., Brain Res. Bulletin, 44:131 (1998). Briefly, cerebral cortices are isolated aseptically from 15-20 Wistar rat embryos. A cell suspension is prepared by mincing the cerebral cortices and digesting them with papain. Cells are washed with ovomucoid enzyme inhibitor and DNaseI and plated onto Poly-D lysine coated plates in high glucose DMEM containing 10% heat-inactivated fetal calf serum, L-glutamine, penicillin and streptomycin. The yield of neurons is […] per embryo and they are 80-90% viable as assessed by Trypan blue exclusion.
The neurons are cultured in complete medium at 37° C. in a normal atmosphere for 48 hours prior to the hypoxia experiments. For hypoxia, the normal cell medium is replaced by oxygen-depleted serum-free medium. Cells are incubated in an atmosphere of 95% N2/5% CO2 for various lengths of time. Compounds are dissolved in DMSO at 100 mM then diluted in medium and added to the culture from time=0. The level of apoptosis is measured using a Cell Death Detection ELISA kit (Roche) which detects DNA fragmentation. Plates are read at 405 nm. Controls included cells cultured in aerobic conditions in serum-containing medium (+serum) and cells cultured in aerobic conditions in serum-deprived medium (−serum).
Compounds with an IC50>0.5 μM are listed as “A”. Compounds with an IC50 between 0.1 μM and 0.5 uM are listed as “B”. Compounds with an IC50<0.1 μM are listed as “C”.

[1] = target: T1, recombinant, purified human Caspase-3 (Homo sapiens, UniProt P42574); assay: Enzyme assay, caspase inhibition (fluorogenic substrate cleavage); assay type: biochemical; settings: second order rate constant of enzyme inactivation; substrate Acetyl-Asp-Glu-Val-Asp-amino-4-methylcoumarin
T1 sequence (P42574 29-175 limits assumed): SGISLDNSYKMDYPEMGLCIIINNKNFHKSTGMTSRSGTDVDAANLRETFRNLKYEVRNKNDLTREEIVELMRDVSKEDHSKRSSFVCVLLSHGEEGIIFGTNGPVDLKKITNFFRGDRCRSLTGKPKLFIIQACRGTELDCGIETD
T1 sequence (P42574 176-277 limits assumed): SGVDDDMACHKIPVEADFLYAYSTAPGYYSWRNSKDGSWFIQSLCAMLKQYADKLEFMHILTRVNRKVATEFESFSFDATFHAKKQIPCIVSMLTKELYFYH
Text: (§1) The assays for caspase inhibition are based on the cleavage of a fluorogenic substrate by recombinant, purified human Caspases −1, −3, −7 or −8. The assays are run in essentially the same way as those reported by Garcia-Calvo et al., J. Biol. Chem. 273, 32608-32613 (1998), using a substrate specific for each enzyme. The substrate for Caspase-1 is Acetyl-Tyr-Val-Ala-Asp-amino-4-methylcoumarin and the substrate for Caspases −3, −7 and −8 is Acetyl-Asp-Glu-Val-Asp-amino-4-methylcoumarin both as disclosed in Garcia-Calvo et al., J. Biol. Chem. 273, 32608-32613 (1998).
(§2) The observed rate of enzyme inactivation at a particular inhibitor concentration, kobs, is computed by direct fits of the data to the equation derived by Thornberry et al., Biochemistry, 33, […] (1994) using a nonlinear least-squares analysis computer program (PRISM 2.0; GraphPad software). To obtain the second order rate constant, kinact, kobs values are plotted against their respective inhibitor concentrations and kinact values are subsequently calculated by computerized linear regression.
(§3) Compounds with kinact(M^−1s^−1)>500000 are listed as “A”. Compounds with kinact(M^−1s^−1) between 100000 and 500000 are listed as “B”. Compounds with kinact(M^−1s^−1)<100000 are listed as “C”.

[2] = target: recombinant, purified human Caspase-8 (Homo sapiens, UniProt Q14790); assay: as above; assay type: biochemical; settings: second order rate constant of enzyme inactivation; substrate Acetyl-Asp-Glu-Val-Asp-amino-4-methylcoumarin
Sequence of recombinant, purified human Caspase-8 (Q14790 217-374 limits assumed): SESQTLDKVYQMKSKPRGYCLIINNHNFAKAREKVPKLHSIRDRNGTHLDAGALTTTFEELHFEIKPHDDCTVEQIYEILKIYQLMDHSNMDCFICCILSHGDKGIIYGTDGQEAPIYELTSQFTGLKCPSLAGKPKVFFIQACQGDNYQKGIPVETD
Sequence of recombinant, purified human Caspase-8 (Q14790 385-479 limits assumed): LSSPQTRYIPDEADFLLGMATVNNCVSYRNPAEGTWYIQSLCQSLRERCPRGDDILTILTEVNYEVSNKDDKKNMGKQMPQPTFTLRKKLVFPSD
Text: as §1, §2, §3

[3] = target: T2, recombinant, purified human Caspase-1 (Homo sapiens, UniProt P29466); assay: as above; assay type: biochemical; settings: second order rate constant of enzyme inactivation; substrate Acetyl-Tyr-Val-Ala-Asp-amino-4-methylcoumarin
T2 sequence (P29466 120-297 limits assumed): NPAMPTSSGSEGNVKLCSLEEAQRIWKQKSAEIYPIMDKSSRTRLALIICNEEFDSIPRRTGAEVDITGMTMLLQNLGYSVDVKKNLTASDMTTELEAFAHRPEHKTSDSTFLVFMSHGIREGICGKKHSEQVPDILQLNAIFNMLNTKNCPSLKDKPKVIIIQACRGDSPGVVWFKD
T2 sequence (P29466 317-404 limits assumed): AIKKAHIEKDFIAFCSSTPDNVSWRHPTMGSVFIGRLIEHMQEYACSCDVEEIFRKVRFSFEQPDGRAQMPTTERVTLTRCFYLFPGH
Text: as §1, §2, §3

[4] = system: IL-1β secretion from human whole blood; assay: Inhibition of IL-1β secretion from whole blood; assay type: cell-based; settings: human whole blood diluted 1:2 in PBS, LPS 5 ng/ml, 18 hours, ELISA
Method: Human blood is freshly drawn from healthy donors and diluted 1:2 in PBS. To 500 μl of diluted blood […] of prediluted test compound in RPMI medium and […] LPS (5 ng/ml final concentration on the plate) are added (LPS, Serotype 0111:B4, Sigma L3012). After stimulation for 18 hours supernatants are collected and assayed for IL-1β levels using the appropriate ELISA kit (R&D systems).
Compounds with an IC50>10 μM are listed as “A”. Compounds with an IC50 between 1 μM and 10 uM are listed as “B”. Compounds with an IC50<1 μM are listed as “C”.

Structure (SMILES): CC[C@@H](C(=O)N[C@@H](CC(=O)O)C(=O)COc1c(F)c(F)cc(F)c1F)n1ccc2ccc(Cl)cc2c1=O [Compound 10, (S,S)-3-[2-(7-chloro-1-oxo-1H-isoquinolin-2-yl)-butyrylamino]-4-oxo-5-(2,3,5,6-tetrafluoro-phenoxy)-pentanoic acid]
- IC50 (rat cortical neurons): < 100 nM
- kinact Caspase-3 [1]: A (Compounds with kinact(M^−1s^−1)>500000 are listed as “A”)
- kinact Caspase-8 [2]: C (Compounds with kinact(M^−1s^−1)<100000 are listed as “C”)
- kinact Caspase-1 [3]: A (Compounds with kinact(M^−1s^−1)>500000 are listed as “A”)
- IC50 [4]: 1 to 10 µM

Structure (SMILES): CC[C@@H](C(=O)N[C@@H](CC(=O)O)C(=O)COc1c(F)c(F)cc(F)c1F)n1ccc2cc(Cl)c(Cl)cc2c1=O [Compound 11, (S,S)-3-[2-(6,7-dichloro-1-oxo-1H-isoquinolin-2-yl)-butyrylamino]-4-oxo-5-(2,3,5,6-tetrafluoro-phenoxy)-pentanoic acid]
- IC50 (rat cortical neurons): 100 to 500 nM
- kinact Caspase-3 [1]: A (Compounds with kinact(M^−1s^−1)>500000 are listed as “A”)
- kinact Caspase-8 [2]: C (Compounds with kinact(M^−1s^−1)<100000 are listed as “C”)
- kinact Caspase-1 [3]: A (Compounds with kinact(M^−1s^−1)>500000 are listed as “A”)
- IC50 [4]: > 10 µM

Structure (SMILES): CC[C@@H](C(=O)N[C@@H](CC(=O)O)C(=O)COc1c(F)ccc(F)c1F)n1cnc2ccccc2c1=O [Compound 8, (S,S)-4-Oxo-3-[2-(4-oxo-4H-quinazolin-3-yl)-butyrylamino]-5-(2,5,6-trifluoro-phenoxy)-pentanoic acid]
- IC50 (rat cortical neurons): 100 to 500 nM
- kinact Caspase-3 [1]: B (Compounds with kinact(M^−1s^−1) between 100000 and 500000 are listed as “B”)
- kinact Caspase-8 [2]: C (Compounds with kinact(M^−1s^−1)<100000 are listed as “C”)
- kinact Caspase-1 [3]: B (Compounds with kinact(M^−1s^−1) between 100000 and 500000 are listed as “B”)
- IC50 [4]: 1 to 10 µM
